Molecular target: PD-1/PD-L1 (Homo sapiens (Human), UniProt Q9NZQ7)
Test: Homogeneous Time-Resolved Fluorescence (HTRF) binding assay
Details: CisBio kit #64CUS000C-1, read-out: IC50 of compounds binding to PD-1/PD-L1
Protocol: Homogeneous Time-Resolved Fluorescence (HTRF) binding assay was used to determine the binding activity of the compound of the present invention to PD-1/PD-L1.
The purchased kit (CisBio, #64CUS000C-1) contained reagents required for assays such as PD-1, PD-L1, anti-tag1-Eu, Anti-tag2-XL665, Dilute Buffer, and Detection Buffer.
1. The compound was formulated to 10 concentrations with a 3-fold gradient with 100% DMSO.
2. The solution of the compound in DMSO was added to Dilute Buffer, mixed thoroughly, then transferred to a 96-well plate.
3. PD-L1 was diluted with Dilute Buffer, then added to the above 96-well plate.
4. PD-1 was diluted with Dilute Buffer and added to the above 96-well plate, which was then incubated at room temperature for 30 minutes.
5. A portion of anti-tag1-Eu and a portion of anti-tag2-XL665 were added to Detection Buffer, mixed thoroughly and transferred to the above 96-well plate.
6. The mixture in the above 96-well plate was incubated at room temperature for 1 to 24 hours.
7. HTRF values were read with Envision.

PD-1/PD-L1, sequence (Q9NZQ7 19-238): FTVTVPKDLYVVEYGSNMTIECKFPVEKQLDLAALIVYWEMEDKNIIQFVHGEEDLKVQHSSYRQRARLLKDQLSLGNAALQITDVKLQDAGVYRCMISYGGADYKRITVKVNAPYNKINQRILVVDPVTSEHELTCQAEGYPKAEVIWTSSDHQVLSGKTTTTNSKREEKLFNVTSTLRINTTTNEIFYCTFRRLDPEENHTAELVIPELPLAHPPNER

Structure (SMILES) | IC50
Cc1ccc(CN[C@H](CO)C(=O)O)cc1/C=C/c1cccc(-c2ccccc2)c1C [Compound 36, (R,E)-2-(4-Methyl-3-(2-(2-methylbiphenyl-3-yl)vinyl)benzylamino)-3-hydroxypropionic Acid] | 100 nM
Cc1cc(CN[C@H](CO)C(=O)O)ccc1/C=C/c1cccc(-c2ccccc2)c1C [Compound 38, (R,E)-2-(3-Methyl-4-(2-(2-methylbiphenyl-3-yl)vinyl)benzylamino)-3-hydroxypropionic Acid] | 230 nM
COc1nc(/C=C/c2cccc(-c3ccccc3)c2C)ccc1CNC(CO)CO [Compound 40] | 90 nM
COc1cc(/C=C/c2cccc(-c3ccccc3)c2C)cc(OC)c1CN[C@@](C)(CO)C(=O)O [Compound 45, (S,E)-2-(2,6-Dimethoxy-4-(2-(2-methylbiphenyl-3-yl)vinyl)benzylamino)-3-hydroxy-2-methylpropanoic Acid] | 49 nM
COc1cc(/C=C/c2cccc(-c3ccccc3)c2C)cc(OC)c1CN[C@](C)(CO)C(=O)O [Compound 46, (R,E)-2-(2,6-Dimethoxy-4-(2-(2-methylbiphenyl-3-yl)vinyl)benzylamino)-3-hydroxy-2-methylpropanoic Acid] | 48 nM
COc1ccc(-c2cccc(/C=C/c3cc(OC)c(CN[C@@H](CO)C(=O)O)c(OC)c3)c2C)cc1 [Compound 48, (S,E)-2-(2,6-Dimethoxy-4-(2-(4′-methoxy-2-methylbiphenyl-3-yl)vinyl)benzylamino)-3-hydroxypropionic Acid] | > 10000 nM
COC(=O)c1ccc(-c2cccc(/C=C/c3cc(OC)c(CNC(C)(CO)C(=O)O)c(OC)c3)c2C)cc1 (stereo not shown) [Compound 49, (E)-2-(2,6-Dimethoxy-4-(2-(4′-(methoxycarbonyl)-2-methylbiphenyl-3-yl)vinyl)benzylamino)-3-hydroxy-2-methylpropanoic Acid] | > 10000 nM

Further molecules by falling IC50, results first:

IC50 | Structure (SMILES)
7980 nM | COc1ccc(-c2cccc(/C=C/c3cc(OC)c(CNC(C)(CO)C(=O)O)c(OC)c3)c2C)cc1 (stereo not shown) [Compound 50, (E)-2-(2,6-Dimethoxy-4-(2-(4′-methoxy-2-methylbiphenyl-3-yl)vinyl)benzylamino)-3-hydroxy-2-methylpropionic Acid]
5090 nM | COc1nc(/C=C/c2cccc(-c3ccccc3)c2C)ccc1CN[C@H](CO)C(=O)O [Compound 41, (R,E)-3-Hydroxy-2-((2-methoxy-6-(2-(2-methylbiphenyl-3-yl)vinyl)pyridin-3-yl)methylamino)propanoic Acid]
1100 nM | COc1nc(/C=C/c2cccc(-c3ccccc3)c2C)ccc1CNC1CCCCC1NC(C)=O (stereo not shown) [Compound 42]
920 nM | COc1cc(/C=C/c2cccc(-c3ccccc3)c2C)cc(OC)c1CN1CCCCC1(CO)C(=O)O (stereo not shown) [Compound 47]
250 nM | Cc1c(/C=C/c2cc(CN[C@H](CO)C(=O)O)ccc2Cl)cccc1-c1ccccc1 [Compound 35, (R,E)-2-(4-Chloro-3-(2-(2-methylbiphenyl-3-yl)vinyl)benzylamino)-3-hydroxypropionic Acid]
170 nM | COc1nc(/C=C/c2cccc(-c3ccccc3)c2C)ccc1CNCCNC(C)=O [Compound 39, (E)-N-(2-(((2-methoxy-6-(2-(2-methylbiphenyl)vinyl)pyridin-3-yl)methyl)amino)ethyl)acetamide]
130 nM | COc1cc(/C=C/c2cccc(-c3ccccc3)c2C)cc(OC)c1CNC(CCO)C(=O)O (stereo not shown) [Compound 43, (E)-2-(2,6-Dimethoxy-4-(2-(2-methylbiphenyl-3-yl)vinyl)benzylamino)-4-hydroxybutanoic Acid]
100 nM | COc1cc(/C=C/c2cccc(-c3ccccc3)c2C)cc(OC)c1CNCC(=O)O [Compound 37, (E)-2-(2,6-Dimethoxy-4-(2-(2-methylbiphenyl-3-yl)vinyl)benzylamino)acetic Acid]
59 nM | COc1cc(/C=C/c2cccc(-c3ccccc3)c2C)cc(OC)c1CNC(C)(CO)C(=O)O (stereo not shown) [Compound 44, (E)-2-(2,6-Dimethoxy-4-(2-(2-methylbiphenyl-3-yl)vinyl)benzylamino)-3-hydroxy-2-methylpropanoic Acid]
